Assay results as given in patent US20070107083A1, “Method for regulating plant growth” (priority 2004, published 2007).
“Also recorded” adds a separate entry of the source.

Experiments:
[1] = system: A. thaliana wild-type Col-0; experiment: Phenotype of wild-type seedlings on brassinosteroid media; type: in vivo, Arabidopsis thaliana; conditions: 10 day old seedlings
Experimental: (§1) 10 day old seedlings were transferred to MS media resp. MS media containing 1.0 μM BL and incubated for another 10 days before phenotypic analysis. […] Right: Seedlings of lines expressing DOGT1 grown on MS media show a BR-deficient phenotype (short hypocotyls and smaller leaves with shorter petioles compared to wild-type).
(§2) Plant material and growth conditions. A. thaliana experiments were conducted with the wild-type ecotype Columbia-0 (Col-0). For propagation seeds were sterilized, plated on standard MS growth medium (Murashige et al., Plant Physiology 15 (1962), 473-497) supplemented with 1.0% sucrose and 1.0% phytagar (Life Technologies) and subjected to a 2 day dark treatment at 4° C. to synchronize germination. The seedlings were grown for 2 weeks in a controlled environment of 16 h/8 h light-dark cycle (140 μmol m^−2 sec^−1 white light) at 22° C. before they were transferred to soil and grown at 20° C. and 55% humidity under continuous white light.
(§3) The effect of externally applied epi-brassinolide (epi-BL) was determined by transferring 10 day old seedlings of wild-type and a high DOGT1-expression line (1319/2) to media containing different concentrations of the brassinosteroid. The plants were incubated for 10 days before the phenotype was analysed.

[2] = system: dwarf mutants with defects in BR biosynthesis; conditions: application of brassinolide; cited from earlier work
[3] = system: A. thaliana high DOGT1-expression line (1319/2); experiment: Phenotype of DOGT1-overexpressing seedlings on brassinosteroid media; type: in vivo, Arabidopsis thaliana; conditions: 10 day old seedlings
Experimental: as §1, §2, §3

[4] = system: Wild-type Saccharomyces cerevisiae; type: cell-based
[5] = system: Saccharomyces cerevisiae strain YZGA452; type: cell-based
[6] = system: UGT73C6 mRNA; experiment: Semiquantitative RT-PCR of 73C6 mRNA after compound treatment; type: in vivo, Arabidopsis thaliana; conditions: seedlings in liquid MS, 5 ppm DON, 200 μM SA, 2 μM ACC or 50 μM JA
[7] = system: UGT73C4 mRNA; experiment: Semiquantitative RT-PCR of 73C4 mRNA after compound treatment; type: in vivo, Arabidopsis thaliana; conditions: seedlings in liquid MS; 5 ppm DON, 200 μM SA
[8] = system: DOGT1 promoter (PDOGT1-GUS); type: in vivo, Arabidopsis thaliana; conditions: seedlings; DON 5 ppm for 4 h, ACC 2 μM for 1 h, SA 200 μM for 12 h, JA 50 μM for 1 h
[9] = system: DOGT1 (UGT73C5) mRNA; experiment: Semiquantitative RT-PCR of DOGT1 mRNA after compound treatment; type: in vivo, Arabidopsis thaliana; conditions: for DOGT1 mRNA expression (RT-PCR): seedlings in liquid MS, 5 ppm DON, 200 μM SA, 2 μM ACC or 50 μM JA
[10] = MS media containing 1.0 μM BL, another 10 days
[11] = media with different concentrations, 10 days

SMILES | 73C6 mRNA expression (RT-PCR) [6] | 73C4 mRNA expression (RT-PCR) [7] | PDOGT1-GUS expression [8] | DOGT1 mRNA expression (RT-PCR) [9] | further results
CC(C)[C@H](C)[C@@H](O)[C@H](O)[C@@H](C)[C@H]1CC[C@H]2[C@@H]3COC(=O)[C@H]4C[C@H](O)[C@H](O)C[C@]4(C)[C@H]3CC[C@]12C [BL, Brassinolide] |  |  |  |  | phenotype of wild-type seedlings [1, 10]: typical growth response; growth of dwarf mutants with defects in BR biosynthesis [2]: restores normal growth; phenotype of DOGT1-expressing seedlings [3, 10]: restores wild-type growth
CC1=C[C@H]2O[C@@H]3[C@H](O)C[C@](C)([C@@]2(CO)[C@H](O)C1=O)[C@]31CO1 [DON, deoxynivalenol] | stronger induction of expression | DON inducible | induce PDOGT1-GUS expression | DON inducible expression | resistance of wild-type yeast [4]: highly resistant; growth of yeast transformed with the empty library plasmid ([5]; 180 ppm DON in media): completely inhibit growth; sensitivity of strain YZGA452 ([5]; strain deficient in four ABC transporters): hypersensitive; time of peak of transcript amounts ([9]; incubation with 5 ppm DON, stated for DOGT1, 73C4 and 73C6 transcripts): 4 h
CC/C=C\C[C@H]1C(=O)CC[C@@H]1CC(=O)O [JA, jasmonic acid] | responded weekly with elevated mRNA levels |  | No induction of expression | responded weekly with elevated mRNA levels | 73C6 mRNA expression (RT-PCR) ([6]; listed as Jasmonic acid): weak induction of expression; DOGT1 mRNA expression (RT-PCR) ([9]; listed as Jasmonic acid): weak induction of expression
O=C(O)c1ccccc1O [SA, salicylic acid] | rather weakly; also recorded: responded weekly with elevated mRNA levels | rather weakly | No induction of expression | rather weakly; also recorded: responded weekly with elevated mRNA levels | 
CC(C)[C@@H](C)[C@@H](O)[C@H](O)[C@@H](C)[C@H]1CC[C@H]2[C@@H]3COC(=O)[C@H]4C[C@H](O)[C@H](O)C[C@]4(C)[C@H]3CC[C@]12C [epi-BL, epi-brassinolide] |  |  |  |  | phenotype of Col-0 [1, 11]: typical growth response; phenotype of high DOGT1-expression line 1319/2 [3, 11]: restored to wild-type phenotype
